Earlier results, collected in patent US20250369985A1, “METHOD FOR DETERMINING THE THERAPEUTIC REGIMEN FOR AN INDIVIDUAL AND ITS USE” (MOSAIQUES DIAGNOSTICS AND THERAPEUTICS AG, priority 2022, published 2025).
Like-named read-outs stand apart in the source and are kept apart here.

Test system: urinary proteins/peptides (71 biomarkers of CD71 classifier)

## CC(=O)S[C@@H]1CC2=CC(=O)CC[C@]2(C)[C@H]2CC[C@@]3(C)[C@@H](CC[C@@]34CCC(=O)O4)[C@H]12 [drug B, Spironolactone]
Peptide 99900220 (Seq. ID No. 1)
  f (fold-change of the abundance): 1
Peptide 99900467 (Seq. ID No. 2)
  f (fold-change of the abundance): 1
Peptide 99901399 (Seq. ID No. 3)
  f (fold-change of the abundance): 1
Peptide 99902592 (Seq. ID No. 4)
  f (fold-change of the abundance): 1
Peptide 99903025 (Seq. ID No. 5)
  f (fold-change of the abundance): 1
Peptide 99904405 (Seq. ID No. 6)
  f (fold-change of the abundance): 1
Peptide 99904666 (Seq. ID No. 7)
  f (fold-change of the abundance): 1
Peptide 99904862 (Seq. ID No. 8)
  f (fold-change of the abundance): 1
Peptide 99905044 (Seq. ID No. 9)
  f (fold-change of the abundance): 1
Peptide 99905259 (Seq. ID No. 10)
  f (fold-change of the abundance): 1
Peptide 99905274 (Seq. ID No. 11)
  f (fold-change of the abundance): 1
Peptide 99905379 (Seq. ID No. 12)
  f (fold-change of the abundance): 1
Peptide 99905423 (Seq. ID No. 13)
  f (fold-change of the abundance): 1
Peptide 99905509 (Seq. ID No. 14)
  f (fold-change of the abundance): 0.77
Peptide 99905551 (Seq. ID No. 15)
  f (fold-change of the abundance): 1.97
Peptide 99906176 (Seq. ID No. 16)
  f (fold-change of the abundance): 1
Peptide 99907275 (Seq. ID No. 17)
  f (fold-change of the abundance): 1
Peptide 99907807 (Seq. ID No. 18)
  f (fold-change of the abundance): 1
Peptide 99908755 (Seq. ID No. 19)
  f (fold-change of the abundance): 1
Peptide 99908795 (Seq. ID No. 20)
  f (fold-change of the abundance): 1
Peptide 99908916 (Seq. ID No. 21)
  f (fold-change of the abundance): 1
Peptide 99909059 (Seq. ID No. 22)
  f (fold-change of the abundance): 1
Peptide 99910002 (Seq. ID No. 23)
  f (fold-change of the abundance): 1
Peptide 99910032 (Seq. ID No. 24)
  f (fold-change of the abundance): 1
Peptide 99910407 (Seq. ID No. 25)
  f (fold-change of the abundance): 1
Peptide 99910483 (Seq. ID No. 26)
  f (fold-change of the abundance): 0.78
Peptide 99910554 (Seq. ID No. 27)
  f (fold-change of the abundance): 1
Peptide 99910883 (Seq. ID No. 28)
  f (fold-change of the abundance): 1
Peptide 99911002 (Seq. ID No. 29)
  f (fold-change of the abundance): 1
Peptide 99911193 (Seq. ID No. 30)
  f (fold-change of the abundance): 1
Peptide 99911415 (Seq. ID No. 31)
  f (fold-change of the abundance): 1
Peptide 99911559 (Seq. ID No. 32)
  f (fold-change of the abundance): 1
Peptide 99911777 (Seq. ID No. 33)
  f (fold-change of the abundance): 1
Peptide 99912101 (Seq. ID No. 34)
  f (fold-change of the abundance): 1
Peptide 99912211 (Seq. ID No. 35)
  f (fold-change of the abundance): 1
Peptide 99912366 (Seq. ID No. 36)
  f (fold-change of the abundance): 1.5
Peptide 99912411 (Seq. ID No. 37)
  f (fold-change of the abundance): 1
Peptide 99912661 (Seq. ID No. 38)
  f (fold-change of the abundance): 1
Peptide 99913200 (Seq. ID No. 39)
  f (fold-change of the abundance): 1.21
Peptide 99913322 (Seq. ID No. 40)
  f (fold-change of the abundance): 1
Peptide 99913825 (Seq. ID No. 41)
  f (fold-change of the abundance): 0.65
Peptide 99914211 (Seq. ID No. 42)
  f (fold-change of the abundance): 1
Peptide 99914445 (Seq. ID No. 43)
  f (fold-change of the abundance): 1
Peptide 99914876 (Seq. ID No. 44)
  f (fold-change of the abundance): 1.5
Peptide 99914887 (Seq. ID No. 45)
  f (fold-change of the abundance): 1
Peptide 99914893 (Seq. ID No. 46)
  f (fold-change of the abundance): 1
Peptide 99914935 (Seq. ID No. 47)
  f (fold-change of the abundance): 0.72
Peptide 99915015 (Seq. ID No. 48)
  f (fold-change of the abundance): 1
Peptide 99915755 (Seq. ID No. 49)
  f (fold-change of the abundance): 1
Peptide 99915778 (Seq. ID No. 50)
  f (fold-change of the abundance): 1
Peptide 99915883 (Seq. ID No. 51)
  f (fold-change of the abundance): 1
Peptide 99916170 (Seq. ID No. 52)
  f (fold-change of the abundance): 1
Peptide 99916177 (Seq. ID No. 53)
  f (fold-change of the abundance): 1.88
Peptide 99916611 (Seq. ID No. 54)
  f (fold-change of the abundance): 1
Peptide 99916615 (Seq. ID No. 55)
  f (fold-change of the abundance): 1
Peptide 99916966 (Seq. ID No. 56)
  f (fold-change of the abundance): 1
Peptide 99917047 (Seq. ID No. 57)
  f (fold-change of the abundance): 0.82
Peptide 99917221 (Seq. ID No. 58)
  f (fold-change of the abundance): 1
Peptide 99917280 (Seq. ID No. 59)
  f (fold-change of the abundance): 1
Peptide 99917288 (Seq. ID No. 60)
  f (fold-change of the abundance): 1
Peptide 99917419 (Seq. ID No. 61)
  f (fold-change of the abundance): 1
Peptide 99917505 (Seq. ID No. 62)
  f (fold-change of the abundance): 1
Peptide 99917596 (Seq. ID No. 63)
  f (fold-change of the abundance): 1
Peptide 99917626 (Seq. ID No. 64)
  f (fold-change of the abundance): 1
Peptide 99917690 (Seq. ID No. 65)
  f (fold-change of the abundance): 1
Peptide 99917825 (Seq. ID No. 66)
  f (fold-change of the abundance): 1
Peptide 99917890 (Seq. ID No. 67)
  f (fold-change of the abundance): 1
Peptide 99917947 (Seq. ID No. 68)
  f (fold-change of the abundance): 1
Peptide 99918831 (Seq. ID No. 69)
  f (fold-change of the abundance): 1.27
Peptide 99918906 (Seq. ID No. 70)
  f (fold-change of the abundance): 1
Peptide 99918909 (Seq. ID No. 71)
  f (fold-change of the abundance): 0.62
